Test [1] deals with Normal human fibroblast MRC-5. The test is described as follows: Cell based assay for accumulation of MDM2 and p53 (immunoblot). The settings on record: MRC-5 cells. As to the method:
Methods: Normal human fibroblast MRC-5 were chosen to determine whether the compounds from the high throughput screening can inhibit the E3 activity of Mdm2, i.e. stabilizing MDM2 and p53 in vivo. After being seeded in 12-well tissue culture cluster overnight, the cells were treated with 50 μM of the compounds for 8 hours. They were harvested with trypsin-EDTA, washed with PBS, and lysed with RIPA buffer. Following removal of insoluble pellet by centrifugation for 20 minutes at 10000 rpm, the lysate was separated on 4-20% gradient SDS-polyacrylamide gel and transferred onto nitrocellulose membrane. The membrane was then blotted with anti-p53 antibody (DO-1), anti-MDM2 antibodies (Ab-1 and Ab-2), anti-p27 (Santa Cruz), anti-Nedd4, and anti-p21Waf1 antibody. After extensive washing with PBS containing 0.5% Triton X-100, it was incubated with HRP-labeled donkey anti-mouse antibody and visualized using enhanced chemiluminescence.
On the technique in general: A western blot detects proteins with antibodies after separation by electrophoresis.

For test [2], the system named is E1A-transformed RPE cells. The test can be described thus: Apoptosis in E1A-transformed RPE cells. Particulars: FIG. 4 left. It is filed as cell-based, human. The source says: Cell-based assays include model systems where primary human epithelial cells (“normal cells”) are compared to the same cells expressing the adenovirus E1A oncogene (“transformed cells”). Activation of p53 was not toxic to normal cells, but activation of p53 in transformed cells induces p53-mediated apoptosis. High concentrations of wild type (wt) p53 protein can induce apoptosis in a variety of different tumor cells. Potential inhibitors of MDM2 would regulate the stability and function of p53 and MDM2. Preferably the assays measure number of cells undergoing apoptosis due to MDM2 induced p53 degradation in tumor cells in the presence or absence of candidate compounds as compared to normal cells in the presence or absence of candidate compounds. An increase in the number of these cells undergoing apoptosis in the presence of candidate compounds in tumor cells, as compared to normal untreated cells is indicative of a potential anti-tumor compound. […]
Apoptosis and cell death were determined by FACS analysis of sub-G1 nuclei or counting trypan blue-positive cells under microscope. Caspase activity was measured using fluorogenic substrate Ac-DEVD-AFC and CytoFluor multi-well plate reader (PerSeptive Biosystems). […]

Square brackets hold non-standard residues; d marks the D form. Peptide text beside a SMILES is read from it. Nle = CCCC[C@H](N)C(=O)O

With `CCCC[C@@H](C=O)NC(=O)[C@H](CC(C)C)NC(=O)[C@H](CC(C)C)NC(C)=O` [LLNL, reference compound] (Ac-Leu-Leu-[Nle]-aldehyde), in test [1] (50 μM, 8 hours), the MDM2 level result is “accumulated MDM2, p53, and p21”; the p53 level result is “accumulated MDM2, p53, and p21”. Moreover, the p21 level result in test [1] (FIG. 3C) is “accumulated MDM2, p53, and p21”. Moreover, the apoptosis entry in test [2] is recorded as “markedly increased apoptosis”.

On to `COc1cccc2c1C(=O)c1c(O)c3c(c(O)c1C2=O)C[C@@](O)(C(=O)CO)C[C@@H]3O[C@H]1C[C@H](N)[C@H](O)[C@H](C)O1` [adriamycin, reference compound], for which the p53 level entry in test [1] (50 μM, 8 hours) is “increased only p53”. Moreover, the apoptosis entry in test [2] is on record as “markedly increased apoptosis”.

The values above are taken from US7498336B2, “Deazaflavin compounds and methods of use thereof” (The United States of America as represented by the …, priority 2003, dated 2009).
